In this experiment the target is T1, human M4 muscarinic acetylcholine receptor (Homo sapiens, UniProt P08173).
T1 construct: expressed in transfected cells
T1 sequence (P08173 1-479): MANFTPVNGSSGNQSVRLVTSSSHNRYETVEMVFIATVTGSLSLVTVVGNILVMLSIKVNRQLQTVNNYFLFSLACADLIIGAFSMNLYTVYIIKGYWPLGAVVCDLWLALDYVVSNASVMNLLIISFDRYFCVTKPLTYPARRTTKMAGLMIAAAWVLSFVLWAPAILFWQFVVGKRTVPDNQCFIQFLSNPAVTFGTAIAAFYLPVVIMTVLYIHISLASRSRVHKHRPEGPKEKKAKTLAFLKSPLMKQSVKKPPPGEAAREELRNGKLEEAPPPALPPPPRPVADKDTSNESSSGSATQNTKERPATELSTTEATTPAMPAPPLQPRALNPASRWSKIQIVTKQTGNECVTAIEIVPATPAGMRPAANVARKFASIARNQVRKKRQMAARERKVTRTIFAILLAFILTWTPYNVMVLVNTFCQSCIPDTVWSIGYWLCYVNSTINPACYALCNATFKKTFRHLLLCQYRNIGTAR
Put plainly: human FLIPR-based M4 PAM assay (CHO-K1 cells with human M4 receptor and Gαqi5, calcium dye fluorescence, EC20 acetylcholine). Format: cell-based. Conditions: inflection point (IP) of the dose response curve, human M4 receptor/Gαqi5, acetylcholine at 20% of maximum response, read-out: M4PAM Hu IP. The procedure:
(§1) In a typical experiment the M4 muscarinic acetylcholine receptor modulating activity of the compounds of the present invention was determined in accordance with the following experimental method. CHO-K1 cells stably transfected with human M4 receptor and chimeric G-protein Gαqi5 (Coward P, et al., Analytical Biochemistry, 270:242-248 (1999)) are thawed from liquid N2 storage, resuspended in growth medium, plated in black, clear bottom 384 well plates, and incubated 16-20 hours at 37° C., 5% CO2. On the day of assay, growth medium is removed, the cells are washed 2 times with wash buffer, and cells are incubated in dye loading buffer at 37° C., 5% CO2 for ˜1 hour. Following dye loading the cell plates are placed in a FLIPR Tetra instrument and while monitoring dye fluorescence (excitation […]), 10 uL of test substance at increasing concentrations is added, and fluorescence values are recorded for 4 min. Next, 10 uL of acetylcholine is added (final concentration calculated so as to achieve 20% of the maximum acetycholine response), and the fluorescence reading is continued for 3.5 min. In some cases, a third addition of acetylcholine (final concentration calculated to achieve 70% of the maximal acetylcholine response) is performed. The resulting dose response curves are fit to a 4 parameter logistic equation and the final result is determined as the inflection point (IP) of the curve
as §1, with “CHO-K1” for “In a typical experiment the M4 muscarinic acetylcholine receptor modulating activity of the compounds of the present invention was determined in accordance with the following experimental method. CHO-K1”, “Gαqi5” for “Gαqi5 (Coward P, et al., Analytical Biochemistry, 270:242-248 (1999))”, “performed.” for “performed. The resulting dose response curves are fit to a 4 parameter logistic equation and the final result is determined as the inflection point (IP) of the curve”

In the case of `N#Cc1ccc(-c2cnn(CC3(C(F)F)CC3)c2)c(-c2ccc3cccnc3c2)n1` [Example 27, 5-(1-{[1-(difluoromethyl)cyclopropyl]methyl}-1H-pyrazol-4-yl)-6-quinolin-7-ylpyridine-2-carbonitrile], the EC50 stood at 33 nM.

Consider `COc1cc2ccc(-c3nc(C#N)ccc3-c3cnn(CC4(C(F)F)CC4)c3)cc2nn1` [Example 28, 5-(1-{[1-(difluoromethyl)cyclopropyl]methyl}-1H-pyrazol-4-yl)-6-(3-methoxycinnolin-7-yl)pyridine-2-carbonitrile], for which the EC50 is 44 nM.

For the molecule `N#Cc1ccc(-c2cnn(CC3CC34CC4)c2)c(-c2ccc3cccnc3c2)n1` (stereo not drawn) [Example 29, 6-quinolin-7-yl-5-[1-(spiro [2.2]pent-1-ylmethyl)-1H-pyrazol-4-yl]pyridine-2-carbonitrile], the EC50 turned out to be 72 nM.

Take `COc1cc2ccc(-c3nc(Cl)c(C)cc3-c3cnn(CCC(C)(C)OC)c3)cc2nn1` [Example 30, 7-{6-chloro-3-[1-(3-methoxy-3-methylbutyl)-1H-pyrazol-4-yl]-5-methylpyridin-2-yl}-3-methoxycinnoline]: the EC50 is 143 nM.

Regarding `COc1cc2ccc(-c3nc(Cl)c(C)cc3-c3cnn(CC(C)(C)OC)c3)cc2nn1` [Example 31, 7-{6-chloro-3-[1-(2-methoxy-2-methylpropyl)-1H-pyrazol-4-yl]-5-methylpyridin-2-yl}-3-methoxycinnoline], the EC50 worked out at 76 nM.

As to `COc1cc2ccc(-c3nc(C#N)c(C)cc3-c3cnn(CCC(C)(C)OC)c3)cc2nn1` [Example 32, 6-(3-methoxycinnolin-7-yl)-5-[1-(3-methoxy-3-methylbutyl)-1H-pyrazol-4-yl]-3-methylpyridine-2-carbonitrile], the EC50 was determined as 113 nM.

As for `COc1cc2ccc(-c3nc(C#N)c(C)cc3-c3cnn(CC(C)(C)OC)c3)cc2nn1` [Example 33, 6-(3-methoxycinnolin-7-yl)-5-[1-(2-methoxy-2-methylpropyl)-1H-pyrazol-4-yl]-3-methylpyridine-2-carbonitrile], the EC50 came out at 84 nM.

Take `COc1cc2ccc(-c3nc(C)c(C)cc3-c3cnn(CCC(C)(C)OC)c3)cc2nn1` [Example 34, 3-methoxy-7-{3-[1-(3-methoxy-3-methylbutyl)-1H-pyrazol-4-yl]-5,6-dimethylpyridin-2-yl}cinnoline]: the EC50 was determined as 141 nM.

As to `COc1cc2ccc(-c3nc(C)c(C)cc3-c3cnn(CC(C)(C)OC)c3)cc2nn1` [Example 35, 3-methoxy-7-{3-[1-(2-methoxy-2-methylpropyl)-1H-pyrazol-4-yl]-5,6-dimethylpyridin-2-yl}cinnoline], the EC50 worked out at 187 nM.

Take `COc1cc2ccc(-c3nc(C)ccc3-c3cnn(CCC(C)(C)F)c3F)cc2nn1` [Example 36, 7-{3-[5-fluoro-1-(3-fluoro-3-methylbutyl)-1H-pyrazol-4-yl]-6-methylpyridin-2-yl}-3-methoxycinnoline]: the EC50 is 14 nM.

Regarding `CC(C)(C)Cn1cc(-c2ccc(C#N)nc2-c2ccc3cccnc3c2)cn1` [Example 37, 5-[1-(2,2-dimethylpropyl)-1H-pyrazol-4-yl]-6-quinolin-7-ylpyridine-2-carbonitrile], the EC50 was determined as 25 nM.

For the molecule `COc1cc2ccc(-c3nc(C#N)ccc3-c3cnn(CC(C)(C)C)c3)cc2nn1` [Example 38, 5-[1-(2,2-dimethylpropyl)-1H-pyrazol-4-yl]-6-(3-methoxycinnolin-7-yl)pyridine-2-carbonitrile], the EC50 is 41 nM.

As for `Cc1ccc2ccc(-c3nc(C#N)ccc3-c3cnn(CC(C)(C)C)c3)cc2n1` [Example 39, 5-[1-(2,2-dimethylpropyl)-1H-pyrazol-4-yl]-6-(2-methylquinolin-7-yl)pyridine-2-carbonitrile], the EC50 was 92 nM.

Consider `CC(C)(C)Cn1cc(-c2ccc(C#N)nc2-c2cnc3cccnc3c2)cn1` [Example 40, 5-[1-(2,2-dimethylpropyl)-1H-pyrazol-4-yl]-6-(1,5-naphthyridin-3-yl)pyridine-2-carbonitrile], for which the EC50 came to 208 nM.

`CC(C)(C)Cn1cc(-c2ccc(C#N)nc2-c2ccc3cc(F)cnc3c2)cn1` [Example 41, 5-[1-(2,2-dimethylpropyl)-1H-pyrazol-4-yl]-6-(3-fluoroquinolin-7-yl)pyridine-2-carbonitrile]: the EC50 was 39 nM.

On to `CC(C)(C)Cn1cc(-c2ccc(C#N)nc2-c2ccc3cc(Cl)nnc3c2)cn1` [Example 42, 6-(3-chlorocinnolin-7-yl)-5-[1-(2,2-dimethylpropyl)-1H-pyrazol-4-yl]pyridine-2-carbonitrile], for which the EC50 is 47 nM.

Regarding `CC(C)(C)Cn1cc(-c2ccc(C#N)nc2-c2ccc3ccnnc3c2)cn1` [Example 43, 6-cinnolin-7-yl-5-[1-(2,2-dimethylpropyl)-1H-pyrazol-4-yl]pyridine-2-carbonitrile], the EC50 stood at 112 nM.

On to `N#Cc1ccc(-c2cnn(CC3(C(F)(F)F)CC3)c2)c(-c2ccc3cccnc3c2)n1` [Example 44, 6-quinolin-7-yl-5-(1-{[1-(trifluoromethyl)cyclopropyl]methyl}-1H-pyrazol-4-yl)pyridine-2-carbonitrile], for which the EC50 was 61 nM.

Turning to `COc1cc2ccc(-c3nc(C#N)ccc3-c3cnn(CC4(C(F)(F)F)CC4)c3)cc2nn1` [Example 45, 6-(3-methoxycinnolin-7-yl)-5-(1-{[1-(trifluoromethyl)cyclopropyl]methyl}-1H-pyrazol-4-yl)pyridine-2-carbonitrile], the EC50 stood at 60 nM.

For the molecule `CC(C)C(O)Cn1cc(-c2ccc(C#N)nc2-c2ccc3cccnc3c2)cn1` (stereo not drawn) [Example 46, 5-[1-(2-hydroxy-3-methylbutyl)-1H-pyrazol-4-yl]-6-quinolin-7-ylpyridine-2-carbonitrile], the EC50 was determined as 169 nM.

As to `N#Cc1nc(-c2ccc3cccnc3c2)c(-c2cnn(CC3(C(F)(F)F)CC3)c2)cc1F` [Example 47, 3-fluoro-6-quinolin-7-yl-5-(1-{[1-(trifluoromethyl)cyclopropyl]methyl}-1H-pyrazol-4-yl)pyridine-2-carbonitrile], the EC50 was determined as 88 nM.

Regarding `COc1ccc(-c2cnn(CCC(C)C)c2)c(-c2ccc3cccnc3c2)n1` [Example 48, 7-{6-methoxy-3-[1-(3-methylbutyl)-1H-pyrazol-4-yl]pyridine-2-yl}quinoline], the EC50 turned out to be 220 nM.

Take `CC(C)CCn1cc(-c2ccc(C(F)(F)F)nc2-c2ccc3cccnc3c2)cn1` [Example 49, 7-{3-[1-(3-methylbutyl)-1H-pyrazol-4-yl]-6-(trifluoromethyl)pyridin-2-yl}quinoline]: the EC50 is 84 nM.

`Cc1ccnc(-c2ccc3cccnc3c2)c1-c1cnn(CCC(C)C)c1` [Example 50, 7-{4-methyl-3-[1-(3-methylbutyl)-1H-pyrazol-4-yl]pyridin-2-yl}quinoline]: the EC50 is 188 nM.

Regarding `COc1ccnc(-c2ccc3cccnc3c2)c1-c1cnn(CCC(C)C)c1` [Example 51, 7-{4-methoxy-3-[1-(3-methylbutyl)-1H-pyrazol-4-yl]pyridin-2-yl}quinoline], the EC50 came to 414 nM.

For the molecule `CC(C)CCn1cc(-c2cc(Cl)cnc2-c2ccc3cccnc3c2)cn1` [Example 52, 7-{5-chloro-3-[1-(3-methylbutyl)-1H-pyrazol-4-yl]pyridin-2-yl}quinoline], the EC50 was 145 nM.

For `COc1cc2ccc(-c3ncc(Cl)cc3-c3cnn(CCC(C)C)c3)cc2nn1` [Example 53, 7-{5-chloro-3-[1-(3-methylbutyl)-1H-pyrazol-4-yl]pyridin-2-yl}-3-methoxycinnoline], the EC50 stood at 131 nM.
